Among the data in patent US9862711B2, “Pyrazine derivatives as phosphatidylinositol 3-kinase inhibitors” (NOVARTIS AG, priority 2014, dated 2018) are IC50 values, retold here.

Broadly, the IC50 is the concentration that gives 50% inhibition.

PI 4-kinase beta, sequence (Q9UBF8 whole entry): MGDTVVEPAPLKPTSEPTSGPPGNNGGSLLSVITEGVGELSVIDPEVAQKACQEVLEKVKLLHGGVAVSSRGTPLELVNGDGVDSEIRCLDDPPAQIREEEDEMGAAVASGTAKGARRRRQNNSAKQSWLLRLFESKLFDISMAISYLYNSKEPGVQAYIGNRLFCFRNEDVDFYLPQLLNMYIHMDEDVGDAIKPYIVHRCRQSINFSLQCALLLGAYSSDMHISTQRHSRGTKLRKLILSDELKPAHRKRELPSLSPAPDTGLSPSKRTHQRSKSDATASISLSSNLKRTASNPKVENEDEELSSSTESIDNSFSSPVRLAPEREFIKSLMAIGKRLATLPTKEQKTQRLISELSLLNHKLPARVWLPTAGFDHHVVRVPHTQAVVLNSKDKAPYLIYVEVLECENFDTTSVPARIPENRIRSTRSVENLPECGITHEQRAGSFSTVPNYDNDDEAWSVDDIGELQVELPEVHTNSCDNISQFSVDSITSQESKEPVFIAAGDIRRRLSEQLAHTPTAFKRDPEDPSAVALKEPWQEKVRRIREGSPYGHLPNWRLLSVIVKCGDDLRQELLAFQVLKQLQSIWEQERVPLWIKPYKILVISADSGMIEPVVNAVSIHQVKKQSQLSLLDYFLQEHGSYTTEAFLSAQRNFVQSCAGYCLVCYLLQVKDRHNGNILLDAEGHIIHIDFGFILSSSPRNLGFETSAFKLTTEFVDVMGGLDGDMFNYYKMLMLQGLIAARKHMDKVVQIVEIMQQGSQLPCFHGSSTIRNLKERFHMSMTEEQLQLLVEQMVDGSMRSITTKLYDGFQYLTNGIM

This assay concerns the target PI 4-kinase beta (Homo sapiens (Human), UniProt Q9UBF8). Briefly: Kinase Glo Luminescent Kinase Assay (Assay D). In kind it is biochemical. The note with it: 1 μM ATP, read-out: Assay D PI4Kβ IC50. From the text: Kinase Glo Luminescent Kinase Assay (Kglo) for PI 3-Kinase Alpha (A), Pb 3-Kinase Beta (B), Vps34 (C), PI 4-Kinase Beta (D)
The luminescence-based ATP detection reagent KinaseGlo was obtained from Promega, (Cat. No. V6714, Lot No. 236161) through Catalys, Wallisellen, Switzerland. L-alpha-phosphatidylinositol (PI, liver, bovine) was obtained from Avanti Polar Lipid (Cat. No. 840042C, Lot#LPI-274), Phosphatidylinositol-4,5-bisphosphate (PIP(4,5)2) was also obtained from Avanti Polar Lipid (Cat. No. 840046X). L-α-Phosphatidylserine (PS) was obtained from Avanti Polar Lipid (Cat. No. 840032C), n-Octylglucoside from Avanti Polar Lipid (Cat. No. 10634425001). Luminescence is a well established readout to determine ATP concentrations and can thus be used to follow the activity of many kinases regardless of their substrate. The Kinase Glo Luminescent Kinase Assay (Promega, Madison/WI, USA) is a homogeneous HTS method of measuring kinase activity by quantifying the amount of ATP remaining in solution following a kinase reaction.
50 nL of compound dilutions were dispensed onto black 384-well low volume Non Binding Styrene (NBS) plates (Costar Cat. No. NBS#3676). L-α-phosphatidylinositol (PI), provided as 10 mg/ml solution in methanol, was transferred into a glass tube and dried under a nitrogen beam. It was then resuspended in 3% OctylGlucoside (1-O-n-octyl-beta-D-glucopyranoside) by vortexing and stored at 4° C. 5 μL of a mix of PI/OctylGlucoside with the PI 3-kinase alpha and PI 3-kinase beta subtypes, or Vps34 or PI 4-kinase beta were added. Kinase reactions were started by the addition of 5 μl of an ATP-mix containing in a final volume 10 μL 10 mM TRIS-HCl pH 7.5, 3 mM MgCl2, 50 mM NaCl, 0.05% CHAPS, 1 mM DTT and 1 μM ATP at room temperature. Reactions were stopped with 10 μl of KinaseGlo and plates were read 10 mins later in a Synergy2 reader using an integration time of 0.1 seconds per well. 2.5 μM of NVP-BGT226 (1-(3-(trifluoromethyl)-4-(piperazin-1-yl)phenyl)-8-(6-methoxypyridin-3-yl)-3-methyl-1H-imidazo[4,5-c]quinolin-2(3H)-one) was added to the assay plates to generate the 100% inhibition of the kinase reaction, and the 0% inhibition was given by the solvent vehicle (90% DMSO in water). (1-(3-(trifluoromethyl)-4-(piperazin-1-yl)phenyl)-8-(6-methoxypyridin-3-yl)-3-methyl-1H-imidazo[4,5-c]quinolin-2(3H)-one) was used as a reference compound and included in all assay plates in the form of 16 dilution points in duplicate.
IC50 values of the percentage inhibition of each compound at 8 concentrations (10, 3.0, 1.0, 0.3, 0.1, 0.030, 0.010 and 0.003 μM) n=2 were derived by fitting a sigmoidal dose-response curve to a plot of assay readout over inhibitor concentration as described. All fits were performed with the program XLfit4 (ID Business Solutions, Guildford, UK).
For orientation: In Kinase-Glo more light means more ATP remaining.
Turning to `Cc1ccc(S(=O)(=O)NCC2(C)COC2)cc1-c1cncc(-c2cn(C)nc2C)n1` [Example 4, Trans 3-[6-(1,3-Dimethyl-1H-pyrazol-4-yl)-pyrazin-2-yl]-4-methyl-N-(3-methyl-oxetan-3-ylmethyl)-benzenesulfonamide], the IC50 is above 10 µM.

Regarding `Cc1ccc(S(=O)(=O)NCCC(C)(C)O)cc1-c1cncc(-c2cn(CCN3CCOCC3)nc2C)n1` [Example 10, N-(3-Hydroxy-3-methyl-butyl)-4-methyl-3-{6-[3-methyl-1-(2-morpholin-4-yl-ethyl)-1H-pyrazol-4-yl]-pyrazin-2-yl}-benzenesulfonamide], the IC50 is above 10 µM.

Take `Cc1ccc(S(=O)(=O)N[C@H]2CC[C@H](O)CC2)cc1-c1cncc(-c2cccnc2)n1` [Example 11, Trans N-(4-Hydroxy-cyclohexyl)-4-methyl-3-(6-pyridin-3-yl-pyrazin-2-yl)-benzenesulfonamide]: the IC50 was above 9.1 µM.

Consider `Cc1ccc(S(=O)(=O)NCCC(C)(C)O)cc1-c1cncc(-c2cn(C)nc2C)n1` [Example 3, 3-[6-(1,3-Dimethyl-1H-pyrazol-4-yl)-pyrazin-2-yl]-N-(3-hydroxy-3-methyl-butyl)-4-methyl-benzenesulfonamide], for which the IC50 was above 9.55 µM.

Turning to `Cc1ncc(-c2cncc(-c3cc(S(=O)(=O)NCCCO)ccc3C)n2)s1` [Example 1, N-(3-Hydroxy-propyl)-4-methyl-3-[6-(2-methyl-thiazol-5-yl)-pyrazin-2-yl]-benzenesulfonamide], the IC50 was above 9.1 µM.

For `Cc1ccc(S(=O)(=O)NCC(C)(C)CO)cc1-c1cncc(-c2cn(C)nc2C)n1` [Example 8, 3-[6-(1,3-Dimethyl-1H-pyrazol-4-yl)-pyrazin-2-yl]-N-(3-hydroxy-2,2-dimethyl-propyl)-4-methyl-benzenesulfonamide], the IC50 is above 9.55 µM.

On to `Cc1ncc(-c2cncc(-c3cc(S(=O)(=O)N[C@H]4CC[C@H](O)CC4)ccc3C)n2)s1` [Example 5, Trans N-(4-Hydroxycyclohexyl)-4-methyl-3-(6-(2-methylthiazol-5-yl)pyrazin-2-yl)benzenesulfonamide], for which the IC50 was above 9.1 µM.

Take `Cc1ccc(S(=O)(=O)NCC(C)(C)O)cc1-c1cncc(-c2cn(C)nc2C)n1` [Example 2, 3-[6-(1,3-Dimethyl-1H-pyrazol-4-yl)-pyrazin-2-yl]-N-(2-hydroxy-2-methyl-propyl)-4-methyl-benzenesulfonamide]: the half-inhibitory concentration (IC50) is above 9.78 µM.

As to `Cc1ccc(S(=O)(=O)NCCC(C)(C)O)cc1-c1cncc(-c2cnn(CCN3CCOCC3)c2)n1` [Example 9, N-(3-Hydroxy-3-methyl-butyl)-4-methyl-3-{6-[1-(2-morpholin-4-yl-ethyl)-1H-pyrazol-4-yl]-pyrazin-2-yl}-benzenesulfonamide], the IC50 is above 9.1 µM.
